This is an account of results in article PMC7997269, “Oral Proteasomal Inhibitors Ixazomib, Oprozomib, and Delanzomib Upregulate the Function of Organic Anion Transporter 3 (OAT3): Implications in OAT3-Mediated Drug-Drug Interactions” (Pharmaceutics, 2021).

One series has as its system T1, 20S proteasome.
T1 construct: gene PSMB5; endogenous 20S proteasome of hOAT3-expressing COS-7 cells; activity read in lysate of drug-treated cells with SUC-LLVY-AMC (chymotrypsin-like, beta5); complex of 28 subunits
The series is described as follows: […] activity with SUC-LLVY-AMC in lysate after […] h treatment of intact COS-7 cells. The class given is cell-based. As to conditions: 37 °C; reversible; chymotrypsin-like activity.

The target of the next series is T2, OAT3 (hOAT3) (Homo sapiens, UniProt Q8TCC7).
T2 construct: gene SLC22A8; full-length human OAT3 with fused Myc tag, stably expressed in COS-7 cells; ~80 kDa on blot
T2 sequence (Q8TCC7 1-542): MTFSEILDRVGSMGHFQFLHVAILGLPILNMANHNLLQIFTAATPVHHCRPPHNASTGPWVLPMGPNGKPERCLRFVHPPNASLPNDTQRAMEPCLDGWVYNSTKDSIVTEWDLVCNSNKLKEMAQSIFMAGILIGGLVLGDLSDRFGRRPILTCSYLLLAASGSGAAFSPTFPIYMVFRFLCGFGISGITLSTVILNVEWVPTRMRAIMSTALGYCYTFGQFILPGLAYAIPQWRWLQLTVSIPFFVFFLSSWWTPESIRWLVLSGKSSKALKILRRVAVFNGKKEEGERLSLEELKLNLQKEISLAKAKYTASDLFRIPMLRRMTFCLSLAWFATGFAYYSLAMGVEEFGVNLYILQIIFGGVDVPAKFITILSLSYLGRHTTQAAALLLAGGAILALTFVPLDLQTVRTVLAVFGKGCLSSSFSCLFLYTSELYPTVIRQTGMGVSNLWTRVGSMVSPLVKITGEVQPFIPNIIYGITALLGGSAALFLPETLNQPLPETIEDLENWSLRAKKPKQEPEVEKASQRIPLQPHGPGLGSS
Description: cis-inhibition of [3H]estrone sulfate uptake in hOAT3-expressing COS-7 cells, […] min. The class given is cell-based.

Substrate in series [1]: C[C@]12CC[C@@H]3c4ccc(OS(=O)(=O)O)cc4CC[C@H]3[C@@H]1CCC2=O
The series is described as follows: cells, lysate or membranes. As to conditions: untreated cells; PBS/Ca2+/Mg2+; 0.3-10 µM; labelled compound (3H); parental-cell uptake subtracted. The series is classed as cell-based, Homo sapiens.

Turning to `CC(C)C[C@H](NC(=O)[C@@H](NC(=O)c1cccc(-c2ccccc2)n1)[C@@H](C)O)B(O)O` [delanzomib], the “% inhibition at 30 nM” value in the series on 20S proteasome is recorded as 61 (95% CI: 57 to 65).

As to `CC(C)C[C@H](NC(=O)CNC(=O)c1cc(Cl)ccc1Cl)B(O)O` [ixazomib], the “% inhibition at 30 nM” value with 20S proteasome is 50 (95% CI: 46 to 54).

Broadly, the inhibition is the drop in the measured response relative to a control, in per cent. As to `CCCN(CCC)S(=O)(=O)c1ccc(C(=O)O)cc1` [probenecid], the inhibition at 5 µM against OAT3 (hOAT3) turned out to be 40%.

B1: OAT3 (hOAT3) (Homo sapiens) (protein)
chain: MTFSEILDRVGSMGHFQFLHVAILGLPILNMANHNLLQIFTAATPVHHCRPPHNASTGPWVLPMGPNGKPERCLRFVHPPNASLPNDTQRAMEPCLDGWVYNSTKDSIVTEWDLVCNSNKLKEMAQSIFMAGILIGGLVLGDLSDRFGRRPILTCSYLLLAASGSGAAFSPTFPIYMVFRFLCGFGISGITLSTVILNVEWVPTRMRAIMSTALGYCYTFGQFILPGLAYAIPQWRWLQLTVSIPFFVFFLSSWWTPESIRWLVLSGKSSKALKILRRVAVFNGKKEEGERLSLEELKLNLQKEISLAKAKYTASDLFRIPMLRRMTFCLSLAWFATGFAYYSLAMGVEEFGVNLYILQIIFGGVDVPAKFITILSLSYLGRHTTQAAALLLAGGAILALTFVPLDLQTVRTVLAVFGKGCLSSSFSCLFLYTSELYPTVIRQTGMGVSNLWTRVGSMVSPLVKITGEVQPFIPNIIYGITALLGGSAALFLPETLNQPLPETIEDLENWSLRAKKPKQEPEVEKASQRIPLQPHGPGLGSS
notes: full-length human OAT3 with fused Myc tag, stably expressed in COS-7 cells; ~80 kDa on blot
Usually Km stands for the concentration of substrate that gives half-maximal velocity. Turning to B1, in series [1], the Km was 4.2 ± 0.3 µM.
